According to ChEMBL document CHEMBL1146460, “Caulibugulones A-F, novel cytotoxic isoquinoline quinones and iminoquinones from the marine bryozoan Caulibugula intermis” (J Nat Prod, 2004):
In brackets after ≈: the same amount, converted by molar mass.

Experiment: Cytotoxicity against wild type mouse IC2 cells after 48 hrs by MTT assay
Conditions: IC2, 48 h

| Compound | IC50 |
| --- | --- |
| CNC1=C(Br)C(=O)c2ccncc2C1=O [CAULIBUGULONE B] | 0.28 µg/mL (≈ 1.05 µM) |
| O=C1C=C(NCCO)C(=O)c2cnccc21 [CAULIBUGULONE D] | 1.67 µg/mL (≈ 7.65 µM) |
| CNC1=C(Cl)C(=O)c2ccncc2C1=O [CAULIBUGULONE C] | 0.22 µg/mL (≈ 0.988 µM) |
| CNC1=CC(=O)c2ccncc2C1=O [CAULIBUGULONE A] | 0.34 µg/mL (≈ 1.81 µM) |
| CNC1=CC(=N)c2ccncc2C1=O [CAULIBUGULONE E] | 0.03 µg/mL (≈ 0.16 µM) |
| CNC1=C/C(=N\CCO)c2ccncc2C1=O [CAULIBUGULONE F] | 0.1 µg/mL (≈ 0.432 µM) |
